Data taken from article PMC5218591 (Bioorganic & medicinal chemistry, 2016).

Molecular target: GPR88 (Homo sapiens, UniProt Q9GZN0)
Details: for agonist activity at GPR88 (in words): purified compounds, Lance cAMP assay; for fold less potent than 3: versus 3

Chain of GPR88 (Q9GZN0 whole entry, species assumed): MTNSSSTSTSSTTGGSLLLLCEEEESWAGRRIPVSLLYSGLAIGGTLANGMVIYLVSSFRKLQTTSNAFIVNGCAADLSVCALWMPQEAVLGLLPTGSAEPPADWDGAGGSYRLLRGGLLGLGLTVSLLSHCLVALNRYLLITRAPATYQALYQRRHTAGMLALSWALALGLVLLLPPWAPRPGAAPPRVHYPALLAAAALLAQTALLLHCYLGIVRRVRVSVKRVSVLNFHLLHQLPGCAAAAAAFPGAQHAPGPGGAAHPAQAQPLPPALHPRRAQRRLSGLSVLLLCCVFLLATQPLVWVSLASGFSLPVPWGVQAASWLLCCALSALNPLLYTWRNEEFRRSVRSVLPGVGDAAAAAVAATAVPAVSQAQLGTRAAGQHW

CCCC(C)COc1ccc([C@@H](NC(=O)[C@@H](CC)c2ccccc2)C(=O)OC)cc1 (stereo partly drawn) [Compound 13aw, Methyl (2R)-2-[4-(2-methylpentyloxy)phenyl]-2-[(S)-2-phenylbutanamido]acetate]
agonist activity at GPR88 (in words): equipotent with 11a | fold more potent than 13a (versus 13a): 4.5 fold

CCCC(C)COc1ccc([C@@H](NC(=O)[C@@H](C)c2ccccc2)C(=O)OC)cc1 (stereo partly drawn) [Compound 11a, Methyl (2R)-2-[4-(2-methylpentyloxy)phenyl]-2-[(S)-2-phenylpropanamido]acetate]
fold less potent than 3: approximately 2.5 fold

CCCC(C)COc1ccc([C@@H](NC(=O)Cc2ccccc2)C(=O)OC)cc1 (stereo partly drawn) [Compound 13a, Methyl (2R)-2-[4-(2-methylpentyloxy)phenyl]-2-(2-phenylacetamido)acetate]
fold less potent than 11a (versus 11a): 5 fold

CCCC(C)COc1ccc([C@@H](NC(=O)[C@@H](C)c2ccccc2)C(=O)O)cc1 (stereo partly drawn) [Compound 11b, (2R)-2-[4-(2-Methylpentyloxy)phenyl]-2-[(S)-2-phenylpropanamido]acetic acid]
agonist activity at GPR88 (in words): completely inactive

CCCC(C)COc1ccc([C@H](CO)NC(=O)Cc2ccccc2)cc1 (stereo partly drawn) [Compound 12a, N-{(1R)-2-Hydroxy-1-[4-(2-methylpentyloxy)phenyl]ethyl}-2-phenylacetamide]
fold less potent than 3: approximately 2 fold

CCCC(C)COc1ccc([C@@H](NC(=O)[C@H](C)c2ccccc2)C(=O)OC)cc1 (some centres unmarked) [Compound 13az]
agonist activity as percentage of TR-FRET signal of the control compound 11a (library screen at 1 μM final, crude compounds, 11a = 100%, Figure 2): less potent than the (S)-isomer

CCCC(C)COc1ccc([C@@H](NC(=O)C(C)C2CCCCC2)C(=O)OC)cc1 (stereo partly drawn) [Compound 12d, Methyl (2R)-2-[4-(2-methylpentyloxy)phenyl]-2-[(R,S)-2-cyclohexylpropanamido]-acetate]
agonist activity at GPR88 (in words): completely inactive
